Measured values: the supplement of paper PMC10307832

Tests used:
Test in all cases: relative viability (nuclei count vs DMSO), 5 days (fraction); higher = more cells survive
Ponatinib + Decitabine = compound: Cc1ccc(C(=O)Nc2ccc(CN3CCN(C)CC3)c(C(F)(F)F)c2)cc1C#Cc1cnc2cccnn12 [Ponatinib] + Nc1ncn([C@H]2C[C@H](O)[C@@H](CO)O2)c(=O)n1 [Decitabine] (partner 2 µM)
Summary of the method: (§1)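 Relative viability divides the nuclei count in treated wells by that in vehicle wells. Lung cancer cell lines were seeded in 1536-well plates, dosed by pin tool the next day, and fixed and stained after 5 days in one step with final 0.05% Triton X-100, 1% formaldehyde and 1 ug/ml Hoechst. Dosing was a single drug or a fixed anchor-drug dose plus five library-drug doses (not always all listed) in √10 steps, and values are medians of duplicate plates imaged at 4×.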

Ponatinib + Vorinostat = compound: Cc1ccc(C(=O)Nc2ccc(CN3CCN(C)CC3)c(C(F)(F)F)c2)cc1C#Cc1cnc2cccnn12 [Ponatinib] + O=C(CCCCCCC(=O)Nc1ccccc1)NO [Vorinostat] (partner 1 µM)
Summary of the method: as §1

Ponatinib + Lapatinib = compound: Cc1ccc(C(=O)Nc2ccc(CN3CCN(C)CC3)c(C(F)(F)F)c2)cc1C#Cc1cnc2cccnn12 [Ponatinib] + CS(=O)(=O)CCNCc1ccc(-c2ccc3ncnc(Nc4ccc(OCc5cccc(F)c5)c(Cl)c4)c3c2)o1 [Lapatinib] (partner 2 µM)
Summary of the method: as §1

Ponatinib + Pemetrexed = compound: Cc1ccc(C(=O)Nc2ccc(CN3CCN(C)CC3)c(C(F)(F)F)c2)cc1C#Cc1cnc2cccnn12 [Ponatinib] + Nc1nc2[nH]cc(CCc3ccc(C(=O)N[C@@H](CCC(=O)O)C(=O)O)cc3)c2c(=O)[nH]1 [Pemetrexed] (partner 0.2 µM)
Summary of the method: as §1

Ponatinib + OSI-027 = compound: Cc1ccc(C(=O)Nc2ccc(CN3CCN(C)CC3)c(C(F)(F)F)c2)cc1C#Cc1cnc2cccnn12 [Ponatinib] + COc1cccc2cc(-c3nc([C@H]4CC[C@H](C(=O)O)CC4)n4ncnc(N)c34)[nH]c12 [OSI-027] (partner 0.5 µM)
Summary of the method: as §1

Cell Line: UMC-11
- relative viability (Ponatinib + Decitabine; first compound 0.006325 µM): 0.595
- relative viability (Ponatinib + Decitabine; first compound 0.06325 µM): 0.709
- relative viability (Ponatinib + Decitabine; first compound 0.2 µM): 0.575
- relative viability (Ponatinib + Vorinostat; first compound 0.002 µM): 0.411
- relative viability (Ponatinib + Vorinostat; first compound 0.006325 µM): 0.403
- relative viability (Ponatinib + Vorinostat; first compound 0.06325 µM): 0.51
- relative viability (Ponatinib + Vorinostat; first compound 0.2 µM): 0.486
- relative viability (Ponatinib + Lapatinib; first compound 0.002 µM): 1
- relative viability (Ponatinib + Lapatinib; first compound 0.006325 µM): 1.05
- relative viability (Ponatinib + Lapatinib; first compound 0.06325 µM): 1.17
- relative viability (Ponatinib + Lapatinib; first compound 0.2 µM): 0.988
- relative viability (Ponatinib + Pemetrexed; first compound 0.002 µM): 0.794
- relative viability (Ponatinib + Pemetrexed; first compound 0.006325 µM): 0.821
- relative viability (Ponatinib + Pemetrexed; first compound 0.06325 µM): 0.862
- relative viability (Ponatinib + Pemetrexed; first compound 0.2 µM): 0.685
- relative viability (Ponatinib + OSI-027; first compound 0.002 µM): 0.47
- relative viability (Ponatinib + OSI-027; first compound 0.006325 µM): 0.49
- relative viability (Ponatinib + OSI-027; first compound 0.06325 µM): 0.555
- relative viability (Ponatinib + OSI-027; first compound 0.2 µM): 0.525
